Reference: PubChem BioAssay (NCI)
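Grown in 96-well plates, cells were treated for 48 hours with each compound at five concentrations. Insufficient inhibition: endpoint recorded as highest concentration tested. TGI denotes the concentration required for complete inhibition of growth.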

What was measured:
Assay in all cases: DTP human tumour cell line panel, 48 h
SR leukemia = test system: SR leukemia
HCT-116 colon = test system: HCT-116 colon
CCRF-CEM leukemia = test system: CCRF-CEM leukemia
DU-145 prostate = test system: DU-145 prostate
HS 578T breast = test system: HS 578T breast
UO-31 renal = test system: UO-31 renal
OVCAR-5 ovarian = test system: OVCAR-5 ovarian
UACC-62 melanoma = test system: UACC-62 melanoma
OVCAR-4 ovarian = test system: OVCAR-4 ovarian
COLO 205 colon = test system: COLO 205 colon
SW-620 colon = test system: SW-620 colon
MOLT-4 leukemia = test system: MOLT-4 leukemia
OVCAR-3 ovarian = test system: OVCAR-3 ovarian
RXF 393 renal = test system: RXF 393 renal
RPMI-8226 leukemia = test system: RPMI-8226 leukemia
HT29 colon = test system: HT29 colon

Q: `COC(=O)c1ccccc1/C=C1\Cc2ccc3c(c2C1=O)CCC3` was tested. Which TGI (SR leukemia) did it give?
A: The TGI was greater than 100 µM.

Q: And the TGI (HCT-116 colon)?
A: Its TGI is greater than 100 µM.

Q: What about the TGI (CCRF-CEM leukemia) of the same compound?
A: The TGI was greater than 100 µM.

Q: And the TGI (DU-145 prostate)?
A: The TGI was greater than 100 µM.

Q: And the TGI (HS 578T breast)?
A: The TGI was greater than 100 µM.

Q: And the TGI (UO-31 renal)?
A: The TGI was greater than 100 µM.

Q: What about the TGI (OVCAR-5 ovarian) of the same compound?
A: The TGI was greater than 100 µM.

Q: And the TGI (UACC-62 melanoma)?
A: Its TGI is greater than 100 µM.

Q: And the TGI (OVCAR-4 ovarian)?
A: The TGI was greater than 100 µM.

Q: What about the TGI (COLO 205 colon) of the same compound?
A: Its TGI is greater than 100 µM.

Q: What about the TGI (SW-620 colon) of the same compound?
A: The TGI was greater than 100 µM.

Q: And the TGI (MOLT-4 leukemia)?
A: The TGI was greater than 100 µM.

Q: And the TGI (OVCAR-3 ovarian)?
A: Its TGI is greater than 100 µM.

Q: And the TGI (RXF 393 renal)?
A: Its TGI is greater than 100 µM.

Q: And the TGI (RPMI-8226 leukemia)?
A: Its TGI is greater than 100 µM.

Q: What about the TGI (HT29 colon) of the same compound?
A: Its TGI is greater than 100 µM.

Q: How did the TGI (SR leukemia) turn out when `O=c1c2ccccc2nc(-c2ccccc2)n1/N=C/c1ccccc1[N+](=O)[O-]` was run?
A: Its TGI is greater than 100 µM.

Q: What about the TGI (HCT-116 colon) of the same compound?
A: Its TGI is greater than 100 µM.

Q: And the TGI (CCRF-CEM leukemia)?
A: The TGI was greater than 100 µM.

Q: What about the TGI (DU-145 prostate) of the same compound?
A: The TGI was greater than 100 µM.

Q: And the TGI (HS 578T breast)?
A: Its TGI is 15.9 µM.

Q: What about the TGI (OVCAR-5 ovarian) of the same compound?
A: Its TGI is greater than 100 µM.

Q: And the TGI (UACC-62 melanoma)?
A: Its TGI is greater than 100 µM.

Q: What about the TGI (OVCAR-4 ovarian) of the same compound?
A: Its TGI is greater than 100 µM.

Q: What about the TGI (COLO 205 colon) of the same compound?
A: The TGI was greater than 100 µM.

Q: And the TGI (SW-620 colon)?
A: The TGI was greater than 100 µM.

Q: And the TGI (MOLT-4 leukemia)?
A: The TGI was greater than 100 µM.

Q: And the TGI (OVCAR-3 ovarian)?
A: The TGI was greater than 100 µM.

Q: And the TGI (RXF 393 renal)?
A: Its TGI is 80.4 µM.

Q: And the TGI (RPMI-8226 leukemia)?
A: The TGI was greater than 100 µM.

Q: And the TGI (HT29 colon)?
A: The TGI was greater than 100 µM.

Q: How did the TGI (SR leukemia) turn out when `COC(=O)C1=C(C)NC(CF)=C(C(=O)OC)C1c1cccc2c(=O)c3ccccc3oc12` (stereo not given) was run?
A: Its TGI is greater than 100 µM.

Q: And the TGI (HCT-116 colon)?
A: Its TGI is greater than 100 µM.

Q: And the TGI (CCRF-CEM leukemia)?
A: Its TGI is greater than 100 µM.

Q: What about the TGI (DU-145 prostate) of the same compound?
A: Its TGI is greater than 100 µM.

Q: And the TGI (HS 578T breast)?
A: Its TGI is greater than 100 µM.

Q: And the TGI (UO-31 renal)?
A: Its TGI is 92.8 µM.

Q: What about the TGI (OVCAR-5 ovarian) of the same compound?
A: The TGI was greater than 100 µM.

Q: What about the TGI (UACC-62 melanoma) of the same compound?
A: Its TGI is greater than 100 µM.

Q: And the TGI (OVCAR-4 ovarian)?
A: Its TGI is greater than 100 µM.

Q: What about the TGI (COLO 205 colon) of the same compound?
A: Its TGI is 22.8 µM.

Q: What about the TGI (SW-620 colon) of the same compound?
A: Its TGI is greater than 100 µM.

Q: And the TGI (MOLT-4 leukemia)?
A: The TGI was greater than 100 µM.

Q: What about the TGI (OVCAR-3 ovarian) of the same compound?
A: The TGI was 66.8 µM.

Q: And the TGI (RXF 393 renal)?
A: The TGI was greater than 100 µM.

Q: What about the TGI (RPMI-8226 leukemia) of the same compound?
A: Its TGI is greater than 100 µM.

Q: And the TGI (HT29 colon)?
A: The TGI was greater than 100 µM.

Q: With `CC(=O)Nn1c(Cc2ccc(Cl)cc2)nn(C)c1=O` as the compound, how does the TGI (SR leukemia) read?
A: The TGI was greater than 100 µM.

Q: And the TGI (HCT-116 colon)?
A: The TGI was greater than 100 µM.

Q: And the TGI (CCRF-CEM leukemia)?
A: The TGI was greater than 100 µM.

Q: And the TGI (DU-145 prostate)?
A: The TGI was greater than 100 µM.

Q: And the TGI (HS 578T breast)?
A: The TGI was greater than 100 µM.

Q: What about the TGI (UO-31 renal) of the same compound?
A: Its TGI is greater than 100 µM.

Q: And the TGI (OVCAR-5 ovarian)?
A: Its TGI is greater than 100 µM.

Q: And the TGI (UACC-62 melanoma)?
A: The TGI was greater than 100 µM.

Q: What about the TGI (OVCAR-4 ovarian) of the same compound?
A: Its TGI is greater than 100 µM.

Q: And the TGI (COLO 205 colon)?
A: The TGI was greater than 100 µM.

Q: What about the TGI (SW-620 colon) of the same compound?
A: The TGI was greater than 100 µM.

Q: What about the TGI (MOLT-4 leukemia) of the same compound?
A: Its TGI is greater than 100 µM.

Q: And the TGI (OVCAR-3 ovarian)?
A: The TGI was greater than 100 µM.

Q: And the TGI (RPMI-8226 leukemia)?
A: The TGI was greater than 100 µM.

Q: What about the TGI (HT29 colon) of the same compound?
A: Its TGI is greater than 100 µM.

Q: How did the TGI (SR leukemia) turn out when `C[C@H]1[C@H]2[C@H](C[C@@]3(C)C4=CC[C@H]5C(C)(C)[C@@H](OC6OCC(O)C(O)C6O)CC[C@@]56C[C@@]46CC[C@]23C)O[C@@]2(O)[C@@H]1OC(C)(C)[C@H]2O` (stereo not given in full) was run?
A: The TGI was 9.01 µM.

Q: What about the TGI (HCT-116 colon) of the same compound?
A: The TGI was 4.21 µM.

Q: What about the TGI (CCRF-CEM leukemia) of the same compound?
A: The TGI was 3.24 µM.

Q: What about the TGI (DU-145 prostate) of the same compound?
A: The TGI was 1.91 µM.

Q: What about the TGI (HS 578T breast) of the same compound?
A: Its TGI is 3.7 µM.

Q: And the TGI (UO-31 renal)?
A: The TGI was 10.2 µM.

Q: What about the TGI (OVCAR-5 ovarian) of the same compound?
A: The TGI was 11.5 µM.

Q: And the TGI (UACC-62 melanoma)?
A: Its TGI is 5.32 µM.

Q: What about the TGI (OVCAR-4 ovarian) of the same compound?
A: Its TGI is 7.17 µM.

Q: What about the TGI (COLO 205 colon) of the same compound?
A: Its TGI is 16.1 µM.

Q: What about the TGI (SW-620 colon) of the same compound?
A: Its TGI is 3.74 µM.

Q: And the TGI (MOLT-4 leukemia)?
A: Its TGI is 24.2 µM.

Q: And the TGI (OVCAR-3 ovarian)?
A: The TGI was 9.61 µM.

Q: And the TGI (RXF 393 renal)?
A: Its TGI is 3.71 µM.

Q: What about the TGI (RPMI-8226 leukemia) of the same compound?
A: The TGI was 4.68 µM.

Q: What about the TGI (HT29 colon) of the same compound?
A: Its TGI is 8.97 µM.

Q: What does the source list for `CN1CC=C(C#CC(C)(C)O)CC1`?
A: TGI (SR leukemia): > 37.5 µM; TGI (HCT-116 colon): > 37.5 µM; TGI (CCRF-CEM leukemia): > 37.5 µM; TGI (DU-145 prostate): > 37.5 µM; TGI (HS 578T breast): > 37.5 µM; TGI (UO-31 renal): > 37.5 µM; TGI (OVCAR-5 ovarian): > 37.5 µM; TGI (UACC-62 melanoma): > 37.5 µM; TGI (OVCAR-4 ovarian): > 37.5 µM; TGI (COLO 205 colon): > 37.5 µM; TGI (SW-620 colon): > 37.5 µM; TGI (MOLT-4 leukemia): > 37.5 µM; TGI (OVCAR-3 ovarian): > 37.5 µM; TGI (RXF 393 renal): > 37.5 µM; TGI (RPMI-8226 leukemia): > 37.5 µM; TGI (HT29 colon): > 37.5 µM

Q: What does the source list for `CSc1ccccc1NC1=NCCO1`?
A: TGI (SR leukemia): > 100 µM; TGI (HCT-116 colon): > 100 µM; TGI (CCRF-CEM leukemia): > 100 µM; TGI (DU-145 prostate): > 100 µM; TGI (HS 578T breast): > 100 µM; TGI (UO-31 renal): > 100 µM; TGI (OVCAR-5 ovarian): > 100 µM; TGI (UACC-62 melanoma): > 100 µM; TGI (OVCAR-4 ovarian): > 100 µM; TGI (COLO 205 colon): > 100 µM; TGI (SW-620 colon): > 100 µM; TGI (MOLT-4 leukemia): > 100 µM; TGI (OVCAR-3 ovarian): > 100 µM; TGI (RXF 393 renal): > 100 µM; TGI (RPMI-8226 leukemia): > 100 µM; TGI (HT29 colon): > 100 µM
